Read-outs that look alike come from different tables or passages of the source.
How the values were obtained:
[1] = target: hCA II (Homo sapiens, UniProt P00918); assay: Stopped flow CO2 hydrase assay, hCA II inhibition; type: biochemical; conditions: stopped flow technique; incubation time of 6 h; mean from 3 different assays; read-out: KI CA II
[2] = target: hCA XII (Homo sapiens, UniProt O43570); assay: Stopped flow CO2 hydrase assay, hCA XII inhibition; type: biochemical; conditions: for Ki: stopped flow technique, incubation time of 6 h, mean from 3 different assays, read-out: KI CA XII
[3] = target: hCA I (Homo sapiens, UniProt P00915); assay: Stopped flow CO2 hydrase assay, hCA I inhibition; type: biochemical
[4] = target: hCA IX (Homo sapiens, UniProt Q16790); assay: Stopped flow CO2 hydrase assay, hCA IX inhibition; type: biochemical; conditions: stopped flow technique; incubation time of 6 h; mean from 3 different assays; read-out: KI CA IX
[5] = tested on: MCF-7 breast cancer cell line; assay: MTT antiproliferative assay under hypoxic conditions; type: cell-based; conditions: Homo sapiens, MCF7, hypoxic conditions (CoCl2), 48 h exposure, mean ± SD of three experiments
Experimental: 2. Anti-proliferative action toward human breast cell line
The examined human breast cancer cell line (MCF-7) has been obtained from American Type Culture Collection (ATCC). Cells line was maintained as monolayers in Dulbecco’s Modified Eagle’s Medium (DMEM) supplemented with 10% FBS, 2 mM L-glutamine, 100 U/ml penicillin and 100µg/ml streptomycin sulfate. Cobalt (II) chloride (CoCl2) was utilized as an inducer of HIF-1α to furnish a chemically-induced hypoxia. Cells were sub-cultured with trypsine /EDTA solution, counted with haemocytometer and plated onto 96-well plates (5000 cells/well) and left overnight to form a semi-confluent monolayer. Cell monolayers were treated in quadrates with […]
for an exposure time of 48 h. At the end of exposure, MTT solution in PBS (5 mg/ml) was then added to all well including no cell blank and left to incubate for 90 min. The formation of formazan crystals were visually confirmed using phase contract microscopy. DMSO (100 µl/well) was added to dissolve the formazan crystals with shaking for 10 min after which the absorbance was read at […]

[6] = tested on: MCF-7 breast cancer cells; assay: Cell cycle analysis by flow cytometry
[7] = tested on: MCF-7 breast cancer cells; assay: Annexin V-FITC/propidium iodide apoptosis assay; type: cell-based, human; conditions: treatment at IC50
Description: […]. This represents 57 folds total increase relative to the control in apoptotic cells.
IC50 values (concentration of sample
4. Annexin V-FITC Apoptosis Assay
Cells were then rinsed in binding

[8] = stopped flow technique, incubation time of 6 h, mean from 3 different assays, read-out: KI CA I

Sequence of hCA I (P00915 whole entry): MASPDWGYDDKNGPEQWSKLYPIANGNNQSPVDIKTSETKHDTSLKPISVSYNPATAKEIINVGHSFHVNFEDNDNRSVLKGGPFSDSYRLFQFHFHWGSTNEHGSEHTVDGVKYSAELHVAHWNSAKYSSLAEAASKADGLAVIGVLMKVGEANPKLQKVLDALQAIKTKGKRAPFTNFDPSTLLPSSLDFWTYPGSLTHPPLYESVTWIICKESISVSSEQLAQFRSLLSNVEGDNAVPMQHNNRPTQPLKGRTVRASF
Sequence of hCA XII (O43570 25-354): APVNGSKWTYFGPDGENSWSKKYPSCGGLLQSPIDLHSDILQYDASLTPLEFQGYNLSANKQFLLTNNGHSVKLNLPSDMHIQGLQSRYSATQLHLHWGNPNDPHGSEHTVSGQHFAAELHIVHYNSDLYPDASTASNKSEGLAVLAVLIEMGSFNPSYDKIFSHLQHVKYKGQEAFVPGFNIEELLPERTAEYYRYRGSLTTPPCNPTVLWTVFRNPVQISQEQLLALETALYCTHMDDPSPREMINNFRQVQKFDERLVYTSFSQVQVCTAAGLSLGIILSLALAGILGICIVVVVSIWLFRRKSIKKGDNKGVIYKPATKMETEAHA

Row | Compound | Ki [1] | Ki [2] | Ki [3, 8] | Ki [4] | diminished inhibition for hCA XII relative to the unsubstituted analogue 5a ([2]; ratio of KI values) | melting point | IC50 [5] | Ki [3] | decrease in G2-M phase compared to the control [6] | increase of cell population at Sub-G1 compared to the control [6] | Apoptosis Total ([7]; MCF-7, AV-FITC/PI positive stained cells) | Apoptosis Early ([7]; MCF-7, AV-FITC/PI, lower right quadrant) | total increase in apoptotic cells relative to the control ([7]; MCF-7, AV-FITC/PI) | Necrosis ([7]; MCF-7, AV-FITC/PI, upper left quadrant) | Apoptosis Late ([7]; MCF-7, AV-FITC/PI, upper right quadrant)
1 | O=C(CN1C(=O)CSC1=O)c1cc2ccccc2oc1=O [5a, 3–(2-Oxo-2–(2-oxo-2H-chromen-3-yl)ethyl)thiazolidine-2,4-dione] | > 100 µM | 0.15 µM | > 100 µM | 0.12 µM |  |  |  |  |  |  |  |  |  |  | 
2 | O=C(CN1C(=O)CSC1=O)c1cc2cc(Br)ccc2oc1=O [5b, 3–(2-(6-Bromo-2-oxo-2H-chromen-3-yl)-2-oxoethyl)thiazolidine-2,4-dione] | > 100 µM | 0.31 µM | > 100 µM | 0.24 µM | 2 fold | 239 to 241 °C |  |  |  |  |  |  |  |  | 
3 | O=C(CN1C(=O)SC(=Cc2ccccc2)C1=O)c1cc2ccccc2oc1=O [10a, 5-Benzylidene-3–(2-oxo-2–(2-oxo-2H-chromen-3-yl)ethyl)thiazolidine-2,4-dione] | > 100 µM | 0.75 µM | > 100 µM | 0.82 µM |  | 249 to 251 °C | 3.13 ± 0.18 µM |  |  |  |  |  |  |  | 
4 | Cc1ccc(C=C2SC(=O)N(CC(=O)c3cc4ccccc4oc3=O)C2=O)cc1 [10b, 5–(4-Methylbenzylidene)-3–(2-oxo-2–(2-oxo-2H-chromen-3-yl)ethyl)thiazolidine-2,4-dione] | > 100 µM | 4 µM | > 100 µM | 4.3 µM |  | 227 to 229 °C |  |  |  |  |  |  |  |  | 
5 | COc1ccc(C=C2SC(=O)N(CC(=O)c3cc4ccccc4oc3=O)C2=O)cc1 [10c, 5–(4-Methoxybenzylidene)-3–(2-oxo-2–(2-oxo-2H-chromen-3-yl)ethyl)thiazolidine-2,4-dione] | > 100 µM | 4.5 µM | > 100 µM | 5.8 µM |  | 257 to 259 °C |  |  |  |  |  |  |  |  | 
6 | COc1ccc(OC)c(C=C2SC(=O)N(CC(=O)c3cc4ccccc4oc3=O)C2=O)c1 [10d, 5–(2,5-Dimethoxybenzylidene)-3–(2-oxo-2–(2-oxo-2H-chromen-3-yl)ethyl)thiazolidine-2,4-dione] | > 100 µM | 6.2 µM | > 100 µM | 8.4 µM |  | 238 to 240 °C |  |  |  |  |  |  |  |  | 
7 | O=C(CN1C(=O)SC(=Cc2ccc([N+](=O)[O-])cc2)C1=O)c1cc2ccccc2oc1=O [10e, 5–(4-Nitrobenzylidene)-3–(2-oxo-2–(2-oxo-2H-chromen-3-yl)ethyl)thiazolidine-2,4-dione] | > 100 µM | 8 µM | > 100 µM | 12.3 µM |  | 263 to 265 °C |  |  |  |  |  |  |  |  | 
8 | O=C(CN1C(=O)SC(=Cc2ccccc2Cl)C1=O)c1cc2ccccc2oc1=O [10f, 5–(2-Chlorobenzylidene)-3–(2-oxo-2–(2-oxo-2H-chromen-3-yl)ethyl)thiazolidine-2,4-dione] | > 100 µM | 3.8 µM | > 100 µM | 2.2 µM |  | 208 to 211 °C |  |  |  |  |  |  |  |  | 
9 | O=C(CN1C(=O)SC(=Cc2ccccc2Br)C1=O)c1cc2ccccc2oc1=O [10g, 5–(2-Bromobenzylidene)-3–(2-oxo-2–(2-oxo-2H-chromen-3-yl)ethyl)thiazolidine-2,4-dione] | > 100 µM | 4.1 µM | > 100 µM | 2.3 µM |  | 230 to 232 °C |  |  |  |  |  |  |  |  | 
10 | O=C(CN1C(=O)SC(=Cc2ccccc2)C1=O)c1cc2cc(Br)ccc2oc1=O [10h, 5-Benzylidene-3–(2-(6-bromo-2-oxo-2H-chromen-3-yl)-2-oxoethyl)thiazolidine-2,4-dione] | > 100 µM | 0.87 µM | > 100 µM | 0.93 µM |  | 252 to 254 °C | 11.1 ± 0.65 µM |  |  |  |  |  |  |  | 
11 | Cc1ccc(C=C2SC(=O)N(CC(=O)c3cc4cc(Br)ccc4oc3=O)C2=O)cc1 [10i, 3–(2-(6-Bromo-2-oxo-2H-chromen-3-yl)-2-oxoethyl)-5–(4-methylbenzylidene)thiazolidine-2,4-dione] | > 100 µM | 2.3 µM | > 100 µM | 6.2 µM |  | 224 to 225 °C |  |  |  |  |  |  |  |  | 
12 | COc1ccc(C=C2SC(=O)N(CC(=O)c3cc4cc(Br)ccc4oc3=O)C2=O)cc1 [10j, 3–(2-(6-Bromo-2-oxo-2H-chromen-3-yl)-2-oxoethyl)-5–(4-methoxybenzylidene)thiazolidine-2,4-dione] | > 100 µM | 4.9 µM | > 100 µM | 8.9 µM |  | 245 to 247 °C |  |  |  |  |  |  |  |  | 
13 | COc1ccc(OC)c(C=C2SC(=O)N(CC(=O)c3cc4cc(Br)ccc4oc3=O)C2=O)c1 [10k, 3–(2-(6-Bromo-2-oxo-2H-chromen-3-yl)-2-oxoethyl)-5–(2,5-dimethoxybenzylidene) thiazolidine-2,4-dione] | > 100 µM | 6.6 µM | > 100 µM | 16.4 µM |  | 204 to 206 °C |  |  |  |  |  |  |  |  | 
14 | O=C(CN1C(=O)SC(=Cc2ccc([N+](=O)[O-])cc2)C1=O)c1cc2cc(Br)ccc2oc1=O [10l, 3–(2-(6-Bromo-2-oxo-2H-chromen-3-yl)-2-oxoethyl)-5–(4-nitrobenzylidene)thiazolidine-2,4-dione] | > 100 µM | 10.4 µM | > 100 µM | 18.2 µM |  | 229 to 231 °C |  |  |  |  |  |  |  |  | 
15 | O=C(CN1C(=O)SC(=Cc2ccccc2Cl)C1=O)c1cc2cc(Br)ccc2oc1=O [10m, 3–(2-(6-Bromo-2-oxo-2H-chromen-3-yl)-2-oxoethyl)-5–(2-chlorobenzylidene)thiazolidine-2,4-dione] | > 100 µM | 3.2 µM | > 100 µM | 2.9 µM |  | 192 to 194 °C |  |  |  |  |  |  |  |  | 
16 | O=C(CN1C(=O)SC(=Cc2ccccc2Br)C1=O)c1cc2cc(Br)ccc2oc1=O [10n, 3–(2-(6-Bromo-2-oxo-2H-chromen-3-yl)-2-oxoethyl)-5–(2-bromobenzylidene)thiazolidine-2,4-dione] | > 100 µM | 2.8 µM | > 100 µM | 3.4 µM |  | 208 to 210 °C |  |  |  |  |  |  |  |  | 
17 | O=C(CN1C(=O)SC(=Cc2cccs2)C1=O)c1cc2ccccc2oc1=O [11a, 3–(2-Oxo-2–(2-oxo-2H-chromen-3-yl)ethyl)-5-(thiophen-2-ylmethylene)thiazolidine-2,4-dione] |  |  |  |  |  |  |  | > 100 µM | 2.6 folds | 19.7 folds | 29.93% | 4.23% | 57 folds | 17.39% | 25.7%
18 | Cc1ccc(C=C2SC(=O)N(CC(=O)c3cc4ccccc4oc3=O)C2=O)o1 [11b, 5-((5-Methylfuran-2-yl)methylene)-3–(2-oxo-2–(2-oxo-2H-chromen-3-yl)ethyl)thiazolidine-2,4-dione] | > 100 µM | 1.1 µM | > 100 µM | 0.79 µM |  | 227 to 229 °C | 4.14 ± 0.24 µM |  |  |  |  |  |  |  | 
19 | O=C(CN1C(=O)SC(=Cc2cccs2)C1=O)c1cc2cc(Br)ccc2oc1=O [11c, 3–(2-(6-Bromo-2-oxo-2H-chromen-3-yl)-2-oxoethyl)-5-(thiophen-2-ylmethylene)thiazolidine-2,4-dione] | > 100 µM | 0.44 µM | > 100 µM | 0.59 µM |  | 255 to 257 °C | 9.56 ± 0.56 µM |  |  |  |  |  |  |  | 
20 | Cc1ccc(C=C2SC(=O)N(CC(=O)c3cc4cc(Br)ccc4oc3=O)C2=O)o1 [11d, 3–(2-(6-Bromo-2-oxo-2H-chromen-3-yl)-2-oxoethyl)-5-((5-methylfuran-2-yl)methylene)thiazolidine-2,4-dione] | > 100 µM | 0.82 µM | > 100 µM | 0.91 µM |  | 236 to 238 °C | 1.65 ± 0.1 µM |  |  |  |  |  |  |  | 

— article PMC8745369, “Discovery of 2,4-thiazolidinedione-tethered coumarins as novel selective inhibitors for carbonic anhydrase IX and XII isoforms” (Journal of Enzyme Inhibition and Medicinal Chemistry, 2022)
